According to patent publication US9439415B2, “Method for reducing damage by harmful organisms in corn cultivation” (priority 2012, dated 2016):

Key:
Agriotes spp. = test: Field furrow spray test, mortality of corn plants from damage by Agriotes spp. (Example 9); assay type: in vivo; conditions: 50 g/ha, furrow spray 100 L/ha, 34 days after treatment, average of four sections, non-treatment section 16.35
Method: A land was ditched at intervals of 80 cm, a predetermined amount of a water-diluted liquid of an esfenvalerate emulsifiable concentrate (using 25 g/L of an EC preparation, trade name: Sumialpha 2.5 EC, manufactured by Philagro) or a water-diluted liquid of a lambda-cyhalothrin SC (using 100 g/L of a SC preparation, trade name: KAPATE ZEON, manufactured by SYNGENTA) was prepared so that the applied amount of an effective component was the amount described in Table 4, and the furrow was spray-treated with the liquid at a spray amount of 100 L/ha. Then, the furrow was seeded with corn (Zea Mays, variety name: Kubrik), and a soil on the side of the furrow was gathered together to close the furrow. A seeding density of corn was 87500 seeds/ha. They were defined as example sections 16 and 17.
For comparison, a non-treatment section, which was seeded with corn in the same manner as in the example sections except that a treatment with a chemical was not performed, was provided. […]
34 days after the treatment with a chemical, the number of plants of corn grown in each of the example sections 16 and 17 and the non-treatment section were investigated, a mortality of plants of corn died because of the damage by Agriotes spp. was calculated in accordance with the following equation, and then an average mortality of the four investigation sections was determined. […]

[1] = system: Diabrotica virgifera virgifera and Agriotes lineatus; test: Field furrow application test, lodge rate of corn due to damage by Diabrotica virgifera virgifera and Agriotes lineatus (Examples 4-8, 10, 11); assay type: in vivo; conditions: 165 days after application, versus non-treatment section
Description: A chemical fertilizer (N:P:K=15:15:15) is applied to the soil surface of a cultivated land at 300 kg/ha, and the cultivated land is then plowed.
7 days after fertilization, for suppressing generation of weeds, the soil surface of the whole cultivated land is spray-treated with a mixed liquid containing thiencarbazone-methyl and isoxaflutole, each of which being a herbicide, and cyprosulfamide which is a safener at 150 L/ha so that the application amounts of thiencarbazone-methyl, isoxaflutole and cyprosulfamide are 9.2 g/ha, 23 g/ha and 15 g/ha, respectively. […]
17 days after application of clothianidin and tefluthrin, the number of plants of corn germinated is investigated, with central two rows of four rows of seeded furrows as an investigation section, for the treatment section and the non-treatment section. 165 days after application of clothianidin and tefluthrin, the number of plants of corn lodged due to damage by Diabrotica virgifera virgifera and Agriotes lineatus in the furrows of the treatment section and the non-treatment section, for which the number of plants of corn germinated is investigated, is investigated, a lodge rate is calculated in accordance with the following equation, and then an average lodge rate for the four investigation sections is determined. […]

| SMILES | Average mortality (%) (Agriotes spp.) | Lodge rate (%) ([1]; Example 10: water-diluted Sumialpha 2.5 EC in furrow, esfenvalerate 100 g/ha) | Lodge rate (%) ([1]; Example 11: water-diluted lambda-cyhalothrin SC in furrow, 100 g/ha) |
| --- | --- | --- | --- |
| CC(C)[C@H](C(=O)O[C@H](C#N)c1cccc(Oc2ccccc2)c1)c1ccc(Cl)cc1 [Esfenvalerate] | 4.85% | low lodge rate as compared to the non-treatment section |  |
| CC1(C)[C@H](C(=O)O[C@H](C#N)c2cccc(Oc3ccccc3)c2)[C@@H]1/C=C(\Cl)C(F)(F)F (racemic) [Lambda-cyhalothrin] | 3.35% |  | low lodge rate as compared to the non-treatment section |
